Each structure is given as a SMILES string.

In the test the target is Cholesterol 24-hydroxylase (Homo sapiens, UniProt Q9Y6A2). The experiment in a line: CYP46A1 Enzyme Assay. The procedure: Briefly, in a 384-well plate format, 10 uL per well of an enzyme-substrate mixture of CYP46A1 (5 uM final concentration) and Testosterone ([…]) were dispensed to wells containing test compound. For CYP46A1 titration, 5 uL per well of serially diluted CYP46A1 (concentrations including 10 uM, 5 uM, and 2.5 uM) and Testosterone ([…]) were dispensed. For Testosterone titration, 5 uL per well of serially diluted Testosterone (concentrations including 10 uM, 5 uM, and 2.5 uM) and CYP46A1 (concentration of 5 uM) were dispensed. The plates were centrifuged at 1000 rpm for 30 seconds, and then sealed and incubated at 37 C. for 30 minutes. The plate was removed from the incubator, and then 10 uL per well of NADPH-generating system were dispensed to initiate the reaction. The plates were incubated at 37 C. for 15 minutes, added with 80 uL per well of 100% methanol consisting 1 ng/ml diclofenac as internal standard, and then transferred for HPLC-MS.
Cholesterol 24-hydroxylase, sequence (Q9Y6A2 whole entry): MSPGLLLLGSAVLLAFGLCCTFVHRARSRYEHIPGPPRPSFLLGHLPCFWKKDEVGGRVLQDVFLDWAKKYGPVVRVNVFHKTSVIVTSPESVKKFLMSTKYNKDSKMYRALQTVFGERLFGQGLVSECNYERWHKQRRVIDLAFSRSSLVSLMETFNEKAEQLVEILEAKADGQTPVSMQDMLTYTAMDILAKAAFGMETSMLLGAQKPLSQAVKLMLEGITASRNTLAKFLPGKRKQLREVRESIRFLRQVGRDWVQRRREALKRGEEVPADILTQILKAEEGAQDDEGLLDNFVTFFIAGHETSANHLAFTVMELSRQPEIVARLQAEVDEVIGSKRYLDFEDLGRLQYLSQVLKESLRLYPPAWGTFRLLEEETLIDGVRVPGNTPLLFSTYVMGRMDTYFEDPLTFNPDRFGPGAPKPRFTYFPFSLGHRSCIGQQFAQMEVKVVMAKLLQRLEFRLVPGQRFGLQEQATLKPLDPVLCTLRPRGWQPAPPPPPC
In the case of `O=C(c1cccnc1-c1ccncn1)N1CCC(F)(c2ccccc2)CC1` [US20230312522, Compound 8], the IC50 (as a rule, the concentration at which inhibition is half-maximal) was above 1 µM.
For `O=C(c1cccnc1-c1ccncn1)N1CCC(F)([C@H](O)c2ccc(C(F)(F)F)cc2)CC1` [US20230312522, Compound 13], the IC50 is below 0.1 µM.
Next, `O=C(c1cccnc1-c1ccncn1)N1CCC(F)([C@@H](O)c2ccc(C(F)(F)F)cc2)CC1` [US20230312522, Compound 14]: below 0.1 µM; `O=C(c1cccnc1-c1ccncn1)N1CCC(F)(Cc2ccc(Cl)cn2)CC1` [US20230312522, Compound 18]: below 0.1 µM.
Next, `O=C(c1cccnc1-c1ccncn1)N1CCC(F)(Cc2ccc(F)cc2F)CC1` [US20230312522, Compound 19]: below 0.1 µM.
The value for `O=C(c1cccnc1-c1ccncn1)N1CCC(F)(Cc2cc(F)cc(F)c2)CC1` [US20230312522, Compound 20] was below 0.1 µM.
The compound `O=C(c1cccnc1-c1ccncn1)N1CCC(F)(Cc2ccc(C(F)(F)F)cn2)CC1` [US20230312522, Compound 22] registered an IC50 below 0.1 µM.
The value for `O=C(c1cccnc1-c1ccncn1)N1CCC(F)(Cc2ccc(C(F)(F)F)nc2)CC1` [US20230312522, Compound 23] was below 0.1 µM; that for `O=C(c1cccnc1-c1ccncn1)N1CCC(F)(Cc2cccc(C(F)(F)F)n2)CC1` [US20230312522, Compound 24] was below 0.1 µM.
The value for `O=C(c1cccnc1-c1ccncn1)N1CCC(F)(Cc2c(F)cc(F)cc2F)CC1` [US20230312522, Compound 26] was below 0.1 µM; that for `O=C(c1cccnc1-c1ccncn1)N1CCC(F)(Cc2ccc(C(F)(F)F)cc2F)CC1` [US20230312522, Compound 28] was below 0.1 µM; that for `O=C(c1cccnc1-c1ccncn1)N1CCC(F)(Cc2ccc(Cl)cc2)CC1` [US20230312522, Compound 29] was below 0.1 µM.
Next, `C[C@H](c1cc(F)cc(F)c1)C1(F)CCN(C(=O)c2cccnc2-c2ccncn2)CC1` [US20230312522, Compound 31]: below 0.1 µM; `C[C@@H](c1cc(F)cc(F)c1)C1(F)CCN(C(=O)c2cccnc2-c2ccncn2)CC1` [US20230312522, Compound 32]: below 0.1 µM; `C[C@H](c1ccc(C(F)(F)F)cc1)C1(F)CCN(C(=O)c2cccnc2-c2ccncn2)CC1` [US20230312522, Compound 33]: below 0.1 µM.
Compound `C[C@@H](c1ccc(C(F)(F)F)cc1)C1(F)CCN(C(=O)c2cccnc2-c2ccncn2)CC1` [US20230312522, Compound 34] came in with an IC50 below 0.1 µM.
Next, `O=C(c1cccnc1-c1ccncc1)N1CCC(F)(Cc2ccc(C(F)(F)F)nc2)CC1` [US20230312522, Compound 35]: below 0.1 µM; `O=C(c1cccnc1-c1ccncc1)N1CCC(F)(Cc2ccc(Cl)cn2)CC1` [US20230312522, Compound 38]: below 0.1 µM.
Next, `O=C(c1cccnc1-c1ccncn1)N1CCC(F)(Cc2cc(C(F)(F)F)c(Cl)cn2)CC1` [US20230312522, Compound 39]: below 0.1 µM; `Cc1ccc(CC2(F)CCN(C(=O)c3cccnc3-c3ccncc3)CC2)nc1` [US20230312522, Compound 43]: below 0.1 µM.
In turn, `O=C(c1cccnc1-c1ccncc1)N1CCC(F)(Cc2cnccn2)CC1` [US20230312522, Compound 45] returned an IC50 above 1 µM.
The value for `O=C(c1cccnc1-c1ccncn1)N1CCC(F)(Cc2ccc(Cl)nc2)CC1` [US20230312522, Compound 46] was below 0.1 µM; that for `O=C(c1cccnc1-c1ccncc1)N1CCC(F)(Cc2ccc(Cl)nc2)CC1` [US20230312522, Compound 47] was below 0.1 µM; that for `O=C(c1cccnc1-c1ccncn1)N1CCC(F)(Cc2ccc(CF)nc2)CC1` [US20230312522, Compound 51] was below 0.1 µM.
For `Cc1cnc(CC2(F)CCN(C(=O)c3cccnc3-c3ccncc3)CC2)cn1` [US20230312522, Compound 52], the IC50 was below 0.1 µM.
Next, `O=C(c1cccnc1-c1ccncc1)N1CCC(F)(Cc2ccc(CF)nc2)CC1` [US20230312522, Compound 54]: below 0.1 µM; `O=C(c1cccnc1-c1ccncc1)N1CCC(F)(Cc2ccc(C(F)F)nc2)CC1` [US20230312522, Compound 55]: below 0.1 µM; `O=C(c1cccnc1-c1ccncn1)N1CCC(F)(Cc2ncc(C(F)(F)F)cn2)CC1` [US20230312522, Compound 56]: above 1 µM.
The value for `Cc1ccc(CC2(F)CCN(C(=O)c3cccnc3-c3ccncc3)CC2)cn1` [US20230312522, Compound 57] was below 0.1 µM.
